Experimental findings from patent US20070275936A1, “Formulations and Treatment Methods” (priority 1998, published 2007) are described below.

In experiment [1] the test system is Wistar rats. Briefly: DNBS induced distal colitis in rats. The format is in vivo. To be noted: DNBS rats. How it is done:
Groups of 3 male Wistar rats (180±20 grams) fasted for 24 hours before 2,4-dinitrobenzene sulfonic acid (DNBS) or saline challenge were used. Distal colitis was induced by intra-colonic instillation of 0.5 mL of an ethanolic solution of DNBS (30 mg in 0.5 mL of a 30% ethanol in saline solution) after which 2 mL of air was injected through the cannula to ensure that the solution remained in the colon. The volume used was 0.1 mL per injection of 2 and 20 mg/mL of 7-oxodehydroepiandrosterone in a liquid formulation, was administered by subcutaneous injection once a day for 6 days. The formulation contained […] of 7-oxodehydroepiandrosterone in a non-aqueous suspension that contained 2% benzyl alcohol w/v, 0.1% Brij 96 w/v and equal volumes of PEG 300 and propylene glycol. Concentrations of 2 mg/mL and 20 mg/mL were obtained by diluting the […] with vehicle that lacked the active substance.
The first dose was given 30 minutes after DNBS challenge. Sulfasalazine (30 mg/mL in 2% Tween 80 in distilled water) was administered orally (PO) once a day (10 mL/kg/day) for 7 days, the first two doses beginning 24 hours and 2 hours before DNBS challenge. The presence of diarrhea was recorded daily by examining the anal area. Animals were fasted for 24 hours prior to being sacrificed. Animals were sacrificed on day 7 or day 8 and their colons were removed and weighed. Before removal of the colon, signs of adhesion between the colon and other organs were recorded. Also, the presence of ulcerations was noted after weighing of each colon. The “net” change of colon-to-body weight (BW) ratio was normalized relative to saline-challenged baseline group. A 30% decrease in “net” colon-to-body weight ratio was considered significant.
A total of five studies were conducted. Data from the first study are reported in this report. The 7-oxodehydroepiandrosterone at 2 and 20 mg/mL, decreased the net colon-to-body weight ratio by 19 and by 14% relative to vehicle-treated group, respectively. […] The formula 1 compound 3β,7β,17β-trihydroxyandrost-5-ene (AET) was administered by subcutaneous injections of 2 and 20 mg/day for 5 or 6 days, with the first dose injected 30 minutes post-DNBS challenge. The AET formulation was the same as the 7-oxodehydroepiandrosterone formulation, except that AET replaced 7-oxodehydroepiandrosterone. AET decreased the net colon-to-body weight ratio by 15% and 21% relative to controls (see the table below). Animals treated with AET (20 mg/kg) had no diarrhea. […] The same formulations containing BrEA hemihydrate (100 mg/mL) or dehydroepiandrosterone (20 mg/mL) decreased the net colon-to-body weight ratio by 21 and 3%, respectively relative to controls.

Experiment [2] has as its system Sprague Dawley rats. Briefly: TNBS induced distal colitis in rats. The format is in vivo. The conditions noted are these: day 14. The protocol:
In another protocol formula 1 compounds were used in a similar animal model. Groups of 10 male Sprague Dawley rats (250-300 grams) were fasted for 24 hours before 2,4,6-trinitrobenzene sulfonic acid (TNBS) or saline challenge. This model presents a severe challenge to the animal's immune system. On Day 0, the rats were lightly anesthetized and a catheter inserted rectally into the colon such that the tip was 8 cm proximal to the anus. Distal colitis was induced by intra-colonic instillation of 0.5 mL of an ethanolic solution of TNBS (60 mg/mL ethanol 50% in water). The test substance, 7-oxodehydroepiandrosterone 20 mg/mL in vehicle or vehicle control was administered by subcutaneous injection (0.1 mL/injection) once a day for 6 days, the first dose being given 30 minutes after TNBS challenge. Sulfasalazine (30 mg/mL in 2% Tween 80 in distilled water) or vehicle control was administered orally (PO) once a day (10 mL/kg/day) for 7 days, the first two doses beginning 24 hours and 2 hours before […] challenge. Signs of diarrhea were recorded daily by examining the anal area. Animals were fasted for 24 hours prior to sacrifice on day 14 and the colon was removed and weighed. After gross observations of colonic tissues, 3 samples were taken from regions approximately 1, 3, and 8 cm proximal to the anus. If gross ulcers or inflammation were present, at least one sample was taken from the affected region. Before removal of the colon, signs of adhesion between the colon and other organs were recorded. […] Body weight, colon-to-body-weight ratio, and damage scores were assessed. Visible damage was scored on a 1-5 scale as follows: 0=No damage; 1=Localized hyperemia but no ulcers; 2=linear ulcers with no significant inflammation; 3=Linear ulcers with inflammation at one site; 4=Two or more sites of ulceration and/or inflammation; 5=Two or more major sites of ulceration and inflammation or one major site of ulceration and inflammation extending more than 1 cm along the length of the colon. […]

The subject of experiment [3] is BALB/c mice. Briefly: Reversal of immunosenescence: HBsAg vaccination of aged mice. The experiment is classed as in vivo. The protocol: Healthy aged (20-month) or immunologically-mature (3-month) BALB/c mice were vaccinated with hepatitis B surface antigen (HBsAg) (2 μg; Recombivax-HB; Merck) and Alum (2.75 μg). The aged mice were vaccinated with the antigen and also received a single subcutaneous injection of either 0.3 mg or 3.0 mg of 3β,7β,17β-trihydroxyandrost-5-ene (AET), BrEA or 7-oxodehydroepiandrosterone, dehydroepiandrosterone or the vehicle (placebo control). The AET, BrEA hemihydrate or dehydroepiandrosterone was present in a formulation that contained 60 mg/mL of the compound suspended in 0.1% w/v carboxymethyl cellulose sodium in 0.9% saline. 7-Oxodehydroepiandrosterone was in a formulation that contained 60 mg/mL of the compound suspended in 0.1% w/v gum arabic in 0.9% saline. A concentration of 6 mg/mL was obtained by diluting the 60 mg/mL formulation with vehicle that lacked the active substance.
Blood samples were collected 14, 21 and 34 days after treatment and the sera were analyzed by ELISA to determine the concentration of HBsAg-specific IgG (total IgG). In addition, samples obtained on day 21 were analyzed to determine the concentration of HBsAg-specific IgG1 and IgG2a subclasses. The results summarized below were average values obtained with blood samples collected 21 days after vaccination of groups of 8 mice. Subcutaneous injection was performed after shaving the hair from the thighs of each mouse. The injected volume was 50 μL for compound (3.0 mg or 0.3 mg) or placebo, and for vaccine preparation. The vehicle control consisted of carboxymethylcellulose (0.5%) in saline (0.9%). Antibody titers were determined by ELISA.
Secondary antibody response. Later, 42 days after the initial exposure to HBsAg, serum samples were taken from the mice described in the previous section and these were tested for anti-HBsAg IgG. At this time-point, vaccine-specific IgG titers were either low or undetectable. Three days later (45 days after first vaccination), the mice were injected again with HBsAg in Alum, but this time, none of the mice received immunosteroid (secondary vaccination). Serum samples collected 7 days and 14 days after the second exposure to HBsAg vaccine were assayed for anti-HBsAg antibody. […] In contrast, in aged mice that had received no immunosteroid with the first HBsAg injection, low levels of anti-HBsAg were detectable, and only in 4 of the 8 mice in this group was antibody detectable. Increases in anti-HBsAg titers were seen following secondary vaccination in aged animals that had been treated with immunosteroid in conjunction with the first HBsAg exposure. The anti-HBsAg antibody titer in serum increased following secondary vaccination in all 8 mice in the groups of aged mice that were treated at primary vaccination with the higher dose (3 mg/mouse) of AET, BrEA or 7-oxodehydroepiandrosterone, or with dehydroepiandrosterone (0.3 mg/mouse). In those aged mice that had received the lower dose (0.3 mg/mouse) of AET, BrEA or 7-oxodehydroepiandrosterone at vaccination, an intermediate response was seen, with 6 of the 8 mice producing detectable anti-HBsAg in response to secondary vaccination.

Experiment [4] concerns the target chloroquine resistant KI P. falciparum. The format is cell-based. How it is done:
Triplicate readings were made for each concentration.
The testing was carried out according to the procedure of Desjardins et al. 1979. After 30 hr culture at 37 degrees C., the same microtiter plates from schizont inhibition assays with another triplicate wells were pulsed with ^3H-hypoxanthine for overnight. The cell suspensions were washed twice on millipore glass fiber filter with Millipore filter apparatus. […] The activity of the drug was measured by plotting DPM against concentration of drug.

`C[C@]12CC[C@H](O)CC1=CC(=O)[C@@H]1[C@@H]2CC[C@]2(C)C(=O)CC[C@@H]12` [7-oxodehydroepiandrosterone]: in experiment [1] (first study, groups of 3), the adhesions result was “Adhesions were absent in all three tested animals” and the colonic ulceration is 1/3. Also, the diarrhea entry in experiment [1] (7-oxodehydroepiandrosterone 2 and 20 mg/mL s.c., sulfasalazine PO, AET 20 mg/kg) is given as “All animals had diarrhea”. For the same molecule, the “histopathology: inflammation / lesion frequency and severity versus controls” value in experiment [2] is reported as “exacerbated the inflammation”. Moreover, in experiment [3] (groups of 8, 0.3 mg/mouse at primary vaccination), the “mice producing anti-HBsAg in response to secondary vaccination” value was found to be 6 mice. Also, the “mice with increased anti-HBsAg antibody titer following secondary vaccination” value in experiment [3] (groups of 8, 3 mg/mouse at primary vaccination) is 8 mice.
Consider `C[C@]12CC[C@H](O)C[C@@H]1CC[C@@H]1[C@@H]2CC[C@]2(C)C(=O)[C@H](Cl)C[C@@H]12` [16-chloroepiandrosterone, 16α-chloroepiandrosterone], for which the IC50 result in experiment [4] is “˜9.25 μg/mL”.
Same read-out and setting: the entry for `C[C@]12CC[C@H](O)CC1=CC[C@@H]1[C@@H]2CC[C@]2(C)C(=O)[C@H](Br)C[C@@H]12` [DHEA-Br, 16α-bromodehydro-epiandrosterone] is “˜25.0 μg/mL”.
